From the supplement of paper PMC10132981, “Formate overflow drives toxic folate trapping in MTHFD1 inhibited cancer cells” (Nature Metabolism, 2023)
± gives the standard deviation of the averaged measurements.

Legend:
Assay in all cases: EC50 for viability (resazurin, 96 h)
SW620 MTHFD2-/- = conditions: RPMI+GlutaMAX (5% dFBS, 1% P/S)
SW620 = tested on: SW620
SW620 WT = tested on: SW620 WT
HCT116 = conditions: RPMI+GlutaMAX (10% FBS, 1% P/S)
PA-TU-8988T = conditions: DMEM+GlutaMAX (5% dFBS, 1% P/S)
SW620 MTHFD2 -/- = conditions: RPMI+GlutaMAX (5% dFBS, 1% P/S)
[1] = metabolite supplement: Hypoxanthine
[2] = metabolite supplement: Thymidine

## Nc1nc(N)c(NC(=O)Nc2cnc(C(=O)N[C@@H](CCc3nnn[nH]3)C(=O)O)c(F)c2)c(=O)[nH]1
SW620 MTHFD2-/-; metabolite supplement: Hypoxanthine + Formate
  EC50 for viability: 15.8 nM
SW620 MTHFD2-/-; metabolite supplement: Vehicle
  EC50 for viability: 0.501 nM
SW620; HPLM (5% dFBS, 1% P/S), metabolite supplement: Vehicle
  EC50 for viability: 12.7 nM
SW620; RPMI+GlutaMAX (5% FBS, 1% P/S), metabolite supplement: Vehicle
  EC50 for viability: 13.4 nM
SW620; RPMI+GlutaMAX (5% dFBS, 1% P/S), metabolite supplement: 50 µM Hypoxanthine
  EC50 for viability: 14 ± 4.3 nM
SW620; RPMI+GlutaMAX (5% dFBS, 1% P/S), metabolite supplement: Vehicle
  EC50 for viability: 14.7 nM
SW620; RPMI+GlutaMAX (10% FBS, 1% P/S), metabolite supplement: Folic acid
  EC50 for viability: 597 nM
SW620; RPMI+GlutaMAX (10% FBS, 1% P/S), metabolite supplement: Folinic acid
  EC50 for viability: 687 nM
SW620; RPMI+GlutaMAX (10% FBS, 1% P/S), metabolite supplement: Hypoxanthine
  EC50 for viability: 10.4 nM
SW620; RPMI+GlutaMAX (10% FBS, 1% P/S), metabolite supplement: Sodium Formate
  EC50 for viability: 12.7 nM
SW620; RPMI+GlutaMAX (10% FBS, 1% P/S), metabolite supplement: Thymidine
  EC50 for viability: > 10000 nM
SW620; RPMI+GlutaMAX (10% FBS, 1% P/S), metabolite supplement: Thymidine + Folic acid
  EC50 for viability: 1920 nM
SW620; RPMI+GlutaMAX (10% FBS, 1% P/S), metabolite supplement: Vehicle
  EC50 for viability: 9.47 ± 2.1 nM
SW620 WT; RPMI+GlutaMAX (5% dFBS, 1% P/S), metabolite supplement: Adenine
  EC50 for viability: 15.3 nM
SW620 WT; RPMI+GlutaMAX (5% dFBS, 1% P/S), metabolite supplement: Adenosine
  EC50 for viability: 16.6 nM
SW620 WT; RPMI+GlutaMAX (5% dFBS, 1% P/S), metabolite supplement: Guanosine
  EC50 for viability: 19.9 nM
SW620 WT; RPMI+GlutaMAX (5% dFBS, 1% P/S), metabolite supplement: Hypoxanthine
  EC50 for viability: 14.1 ± 4.2 nM
SW620 WT; RPMI+GlutaMAX (5% dFBS, 1% P/S), metabolite supplement: Hypoxanthine + AICAr 10 µM
  EC50 for viability: 12.3 nM
SW620 WT; RPMI+GlutaMAX (5% dFBS, 1% P/S), metabolite supplement: Hypoxanthine + AICAr 30 µM
  EC50 for viability: 16.4 nM
SW620 WT; RPMI+GlutaMAX (5% dFBS, 1% P/S), metabolite supplement: Hypoxanthine + AICAr 50 µM
  EC50 for viability: 20 nM
SW620 WT; RPMI+GlutaMAX (5% dFBS, 1% P/S), metabolite supplement: Hypoxanthine + AICAr 100 µM
  EC50 for viability: > 10000 nM
SW620 WT; RPMI+GlutaMAX (5% dFBS, 1% P/S, 10 uM Hypoxanthine), metabolite supplement: Thymidine 0.1 uM
  EC50 for viability: 16.5 nM
SW620 WT; RPMI+GlutaMAX (5% dFBS, 1% P/S, 10 uM Hypoxanthine), metabolite supplement: Thymidine 0.5 uM
  EC50 for viability: 24.3 nM
SW620 WT; RPMI+GlutaMAX (5% dFBS, 1% P/S, 10 uM Hypoxanthine), metabolite supplement: Thymidine 1uM
  EC50 for viability: 13.7 nM
SW620 WT; RPMI+GlutaMAX (5% dFBS, 1% P/S, 10 uM Hypoxanthine), metabolite supplement: Thymidine 5uM
  EC50 for viability: > 10000 nM
SW620 WT; RPMI+GlutaMAX (5% dFBS, 1% P/S, 10 uM Hypoxanthine), metabolite supplement: Thymidine 10 uM
  EC50 for viability: > 10000 nM
SW620 WT; RPMI+GlutaMAX (5% dFBS, 1% P/S, 10 uM Hypoxanthine), metabolite supplement: Thymidine 25 uM
  EC50 for viability: > 10000 nM
SW620 WT; RPMI+GlutaMAX (5% dFBS, 1% P/S, 10 uM Hypoxanthine), metabolite supplement: Thymidine 50 uM
  EC50 for viability: > 10000 nM
SW620 WT; RPMI+GlutaMAX (5% dFBS, 1% P/S, 10 uM Hypoxanthine), metabolite supplement: Vehicle
  EC50 for viability: 13.6 nM
SW620 WT; RPMI+GlutaMAX (5% dFBS, 1% P/S, 50 uM Hypoxanthine), metabolite supplement: Thymidine 0.1 uM
  EC50 for viability: 17.5 nM
SW620 WT; RPMI+GlutaMAX (5% dFBS, 1% P/S, 50 uM Hypoxanthine), metabolite supplement: Thymidine 0.5 uM
  EC50 for viability: 14.5 nM
SW620 WT; RPMI+GlutaMAX (5% dFBS, 1% P/S, 50 uM Hypoxanthine), metabolite supplement: Thymidine 1uM
  EC50 for viability: 12.5 nM
SW620 WT; RPMI+GlutaMAX (5% dFBS, 1% P/S, 50 uM Hypoxanthine), metabolite supplement: Thymidine 5uM
  EC50 for viability: > 10000 nM
SW620 WT; RPMI+GlutaMAX (5% dFBS, 1% P/S, 50 uM Hypoxanthine), metabolite supplement: Thymidine 10 uM
  EC50 for viability: > 10000 nM
SW620 WT; RPMI+GlutaMAX (5% dFBS, 1% P/S, 50 uM Hypoxanthine), metabolite supplement: Thymidine 25 uM
  EC50 for viability: > 10000 nM
SW620 WT; RPMI+GlutaMAX (5% dFBS, 1% P/S, 50 uM Hypoxanthine), metabolite supplement: Thymidine 50 uM
  EC50 for viability: > 10000 nM
SW620 WT; RPMI+GlutaMAX (5% dFBS, 1% P/S, 50 uM Hypoxanthine), metabolite supplement: Vehicle
  EC50 for viability: 13 nM
HCT116; [1]
  EC50 for viability: 6.57 nM
HCT116; metabolite supplement: Vehicle
  EC50 for viability: 13.1 nM
PA-TU-8988T; [2]
  EC50 for viability: 1.6 nM
PA-TU-8988T; metabolite supplement: Vehicle
  EC50 for viability: 1.31 nM
SW620 MTHFD2 -/-; [1]
  EC50 for viability: 1.53 nM
SW620 MTHFD2 -/-; metabolite supplement: Sodium Formate
  EC50 for viability: 12.5 nM
SW620 MTHFD2 -/-; [2]
  EC50 for viability: 0.604 ± 0.97 nM
SW620 MTHFD2 -/-; metabolite supplement: Thymidine + Sodium Formate
  EC50 for viability: 129 nM
SW620 MTHFD2 -/-; metabolite supplement: Vehicle
  EC50 for viability: 0.506 ± 0.64 nM
